US20260374766A1, “METHODS FOR TREATING CANCER” (Antares Therapeutics, Inc., priority 2022, published 2026)

Legend:
[1] = molecular target: p53 Y220C (Homo sapiens, UniProt P04637, Y220C); assay: Luciferase Reporter Assay (Luc), p53 response element, NClH1299 cells with inducible p53 Y220C; format: cell-based; conditions: luciferase reporter, NClH1299 inducible p53 Y220C, 6 hour; for Emax: 10 uM tool compound as positive control; for AC50: read-out: Luc P53 Y220C AC50
Outline: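 Luminescence readout (One-Glo, 5 min shaking at RT, read at once) after 6 h compound exposure; cells pre-induced 24 h with 0.5 ug/mL doxycycline, 5,000/well.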

[2] = tested on: NUGC3 p53 Y220C; assay: Cell Proliferation Assay (CellTiter-Glo, CTG), NUGC3 p53 Y220C; format: cell-based; conditions: Homo sapiens, NUGC-3, 120 h, CellTiter-Glo, NUGC3 p53 Y220C, 5 days
Outline: (§1)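 NClH1299 lines stably transduced with Tet-inducible p53 Y220C or R273H, plus NUGC3, were treated with compound for 5 days at 250-500 cells/well. IC50 derived from CellTiter-Glo luminescent signal after 10 min room-temperature incubation.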

[3] = molecular target: T1, p53 Y220C mutant protein (amino acid residues 94-293) (Homo sapiens, UniProt P04637, Y220C); assay: Thermal Shift Assay (TSA), dTM; format: binding; conditions: thermal shift; for ΔTm at 100 µM: 100 uM compound, read-out: TSA P53 Y220C dTM (100 uM)
T1 construct: p53 Y220C mutant protein (amino acid residues 94-293)
Outline: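 Recombinant p53 Y220C core (residues 94-293) at 5 μM was incubated with 10 μM or 100 μM compound for 3 hours at 20 °C in 20 mM HEPES pH7.4, 100 mM NaCl, 0.01% Pluronic F-127, 1% DMSO with 400-fold diluted Sypro Orange. Melting was followed from 30 °C to 50 °C at 0.03 °C/second, and TM came from a Boltzmann two-state fit.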

[4] = tested on: H1299 p53 Y220C; assay: Cell Proliferation Assay (CellTiter-Glo, CTG), H1299 p53 Y220C (NClH1299-inducible p53 Y220C); format: cell-based; conditions: Homo sapiens, NCI-H1299, 120 h, CellTiter-Glo, H1299 p53 Y220C, 5 days
Outline: as §1

[5] = tested on: H1299 p53 R273H; assay: Cell Proliferation Assay (CellTiter-Glo, CTG), H1299 p53 R273H (NClH1299-inducible p53 R273H); format: cell-based; conditions: Homo sapiens, NCI-H1299, 120 h, CellTiter-Glo, H1299 p53 R273H, 5 days
Outline: as §1

[6] = molecular target: T1, p53 Y220C mutant protein (amino acid residues 94-293); assay: Surface Plasmon Resonance (SPR) assay, Kd_kinetic; format: binding; conditions: SPR, kinetic KD, p53 Y220C; read-out: SPR P53 Y220C KD kinetic
Outline: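 Temperature held at 16 or 20 °C during Biacore 8K runs. Buffer: 50 mM Tris, pH 7.5, 100 mM NaCl, 1 mM DTT, 0.01% Brij35, 0.05% Tween-20, 1% DMSO.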

| Structure (SMILES) | Emax [1] | AC50 [1] | IC50 [2] | ΔTm at 100 µM [3] | IC50 [4] | IC50 [5] | Kd [6] | ΔTm at 10 µM ([3]; 10 uM compound, read-out: TSA P53 Y220C dTM (10 uM)) |
| --- | --- | --- | --- | --- | --- | --- | --- | --- |
| COc1cc(S(C)(=O)=O)ccc1NCC#Cc1nc2c(NC3CCN(C(C)C)CC3)cccn2c1CC(F)(F)F [Example 9, 1-isopropyl-N-(2-{3-[(4-methanesulfonyl-2-methoxyphenyl)amino]prop-1-yn-1-yl}-3-(2,2,2-trifluoroethyl)imidazo[1,2-a]pyridin-8-yl)piperidin-4-amine] | 70 to 80% | 1500 to 3000 nM | 1500 to 3000 nM | ≥ 10 °C | 1500 to 3000 nM | 5000 to 8000 nM | 10 to 100 nM |  |
| COc1cc(S(C)(=O)=O)ccc1NCC#Cc1nc2c(NC3CCN(CC(C)(C)O)CC3)cccn2c1CC(F)(F)F [Example 11, 1-{4-[(2-{3-[(4-methanesulfonyl-2-methoxyphenyl)amino]prop-1-yn-1-yl}-3-(2,2,2-trifluoroethyl)imidazo [1,2-a]pyridin-8-yl)amino]piperidin-1-yl}-2-methylpropan-2-ol] | 70 to 80% | 1500 to 3000 nM | 1500 to 3000 nM | ≥ 10 °C | 750 to 1500 nM | 5000 to 8000 nM | 10 to 100 nM |  |
| COC[C@@H](O)CN1CCC(Nc2cccn3c(CC(F)(F)F)c(C#CCNc4ccc(S(C)(=O)=O)cc4OC)nc23)CC1 [Example 12, (2S)-1-{4-[(2-{3-[(4-methanesulfonyl-2-methoxyphenyl)amino]prop-1-yn-1-yl}-3-(2,2,2-trifluoroethyl)imidazo[1,2-a]pyridin-8-yl)amino]piperidin-1-yl}-3-methoxypropan-2-ol] | 70 to 80% | 1500 to 3000 nM | 750 to 1500 nM | ≥ 10 °C | 1500 to 3000 nM | ≥ 10000 nM | 10 to 100 nM |  |
| COC[C@H](O)CN1CCC(Nc2cccn3c(CC(F)(F)F)c(C#CCNc4ccc(S(C)(=O)=O)cc4OC)nc23)CC1 [Example 14, (2R)-1-{4-[(2-{3-[(4-methanesulfonyl-2-methoxyphenyl)amino]prop-1-yn-1-yl}-3-(2,2,2-trifluoroethyl)imidazo[1,2-a]pyridin-8-yl)amino]piperidin-1-yl}-3-methoxypropan-2-ol] | 70 to 80% | 1500 to 3000 nM | 750 to 1500 nM | ≥ 10 °C | 750 to 1500 nM | 5000 to 8000 nM | 10 to 100 nM |  |
| CCc1c(C#CCNc2ccc(S(C)(=O)=O)cc2OC)nc2c(N[C@@H]3CCN(C)C[C@@H]3F)cccn12 [Example 15, (3S,4R)—N-(3-ethyl-2-{3-[(4-methanesulfonyl-2-methoxyphenyl)amino]prop-1-yn-1-yl}imidazo[1,2-a]pyridin-8-yl)-3-fluoro-1-methylpiperidin-4-amine] | < 70% | 1500 to 3000 nM | 1500 to 3000 nM | 5 to 10 °C | 1500 to 3000 nM | 8000 to 10000 nM | 10 to 100 nM |  |
| CCc1c(C#CCNc2ccc(S(C)(=O)=O)cc2OC)nc2c(NC3CCN(C)CC3)cccn12 [Example 16, N-(3-ethyl-2-{3-[(4-methanesulfonyl-2-methoxyphenyl)amino]prop-1-yn-1-yl}imidazo[1,2-a]pyridin-8-yl)-1-methylpiperidin-4-amine] | < 70% | > 3000 nM | > 3000 nM | 5 to 10 °C | > 3000 nM | 5000 to 8000 nM | 10 to 100 nM |  |
| CCOc1c(C#CCNc2ccc(C(=O)NC)cc2OC)nc2c(N[C@@H]3CCN(C)C[C@@H]3F)cccn12 [Example 17, 4-{[3-(3-ethoxy-8-{[(3S,4R)-3-fluoro-1-methylpiperidin-4-yl]amino}imidazo[1,2-a]pyridin-2-yl)prop-2-yn-1-yl]amino}-3-methoxy-N-methylbenzamide] | < 70% | > 3000 nM | > 3000 nM | 1 to 5 °C | > 3000 nM | ≥ 10000 nM | 100 to 1000 nM |  |
| CC#Cc1nn2c(N[C@@H]3CCN(C)C[C@@H]3F)cccc2c1CC(F)(F)F [Example 20, (3S,4R)-3-fluoro-1-methyl-N-[2-(prop-1-yn-1-yl)-3-(2,2,2-trifluoroethyl)pyrazolo[1,5-a]pyridin-7-yl]piperidin-4-amine] | < 70% | > 3000 nM | > 3000 nM | 5 to 10 °C | > 3000 nM | ≥ 10000 nM | 10 to 100 nM |  |
| CNC(=O)c1ccc(NCC#Cc2nc3c(N[C@@H]4CCN(C)C[C@@H]4F)cccn3c2NC)c(OC)c1 [Example 25, 4-{[3-(8-{[(3S,4R)-3-fluoro-1-methylpiperidin-4-yl]amino}-3-(methylamino)imidazo[1,2-a]pyridin-2-yl)prop-2-yn-1-yl]amino}-3-methoxy-N-methylbenzamide] | < 70% | > 3000 nM | > 3000 nM | 5 to 10 °C | > 3000 nM | ≥ 10000 nM | 100 to 1000 nM |  |
| CNC(=O)c1ccc(NCC#Cc2nc3c(N[C@@H]4CCN(C)C[C@@H]4F)cccn3c2C2CC2)c(OC)c1 [Example 29, 4-{[3-(3-cyclopropyl-8-{[(3S,4R)-3-fluoro-1-methylpiperidin-4-yl]amino}imidazo[1,2-a]pyridin-2-yl)prop-2-yn-1-yl]amino}-3-methoxy-N-methylbenzamide] | < 70% | > 3000 nM | > 3000 nM | 5 to 10 °C | > 3000 nM | ≥ 10000 nM | 100 to 1000 nM |  |
| COc1cc(S(C)(=O)=O)ccc1NCC#Cc1nc2c(NC3CCN(C)CC3)cc(N)cn2c1CC(F)(F)F [Example 32, 2-{3-[(4-methanesulfonyl-2-methoxyphenyl)amino]prop-1-yn-1-yl}-N8-(1-methylpiperidin-4-yl)-3-(2,2,2-trifluoroethyl) imidazo[1,2-a]pyridine-6,8-diamine] | < 70% | > 3000 nM | > 3000 nM | 1 to 5 °C | > 3000 nM | ≥ 10000 nM | < 10 nM | 1 to 5 °C |
| CNc1cc(NC2CCN(C)CC2)c2nc(C#CCNc3ccc(S(C)(=O)=O)cc3OC)c(CC(F)(F)F)n2c1 [Example 33, 2-{3-[(4-methanesulfonyl-2-methoxyphenyl)amino]prop-1-yn-1-yl}-N6-methyl-N8-(1-methylpiperidin-4-yl)-3-(2,2,2-trifluoroethyl) imidazo[1,2-a]pyridine-6,8-diamine] | < 70% | > 3000 nM | > 3000 nM | 1 to 5 °C | > 3000 nM | ≥ 10000 nM | 10 to 100 nM |  |
| CNC(=O)c1ccc(NCC#Cc2nc3c(N[C@@H]4CCN(C)C[C@@H]4F)cccn3c2CC(F)(F)F)cc1 [Example 35, 4-{[3-(8-{[(3S,4R)-3-fluoro-1-methylpiperidin-4-yl]amino}-3-(2,2,2-trifluoroethyl)imidazo[1,2-a]pyridin-2-yl)prop-2-yn-1-yl]amino}-N-methylbenzamide] | 70 to 80% | > 3000 nM | 1500 to 3000 nM | 5 to 10 °C | 1500 to 3000 nM | ≥ 10000 nM | < 10 nM |  |
